Measured values as given in patent US20050245550A1, “Fungicidal mixtures based on the dithianon” (priority 2002, published 2005).

How the values were obtained:
[1] = tested on: Botrytis cinerea; assay: Activity against gray mold on bell pepper leaves caused by Botrytis cinerea; assay type: in vivo; conditions: individual active compound
Protocol: (§1) The active compounds were prepared separately or jointly as a stock solution comprising 0.25% by weight of active compound in acetone or DMSO. 1% by weight of the emulsifier Uniperol® EL (wetting agent having emulsifying and dispersing action based on ethoxylated alkylphenols) was added to this solution, and the mixture was diluted with water to the desired concentration.
Bell pepper seedlings of the cultivar “Neusiedler Ideal Elite” were, after 4-5 leaves were well developed, sprayed to runoff point with an aqueous suspension having the concentration of active compound stated below. The next day, the treated plants were inoculated with a spore suspension of Botrytis cinerea which contained 1.7×10^6 spores/ml in a 2% strength aqueous biomalt solution. The test plants were then placed in a climatized chamber at 22-24° C. and high atmospheric humidity. After 5 days, the extent of the fungal infection on the leaves could be determined visually in %.
(§2) Evaluation was carried out by determining the infected leaf areas in percent. These percentages are converted into efficacies.
(§3) The efficacy (E) is calculated as follows using Abbot's formula: E=(1−α/β)·100 α corresponds to the fungal infection of the treated plants in % and • β corresponds to the fungal infection of the untreated (control) plants in %
(§4) An efficacy of 0 means that the infection level of the treated plants corresponds to that of the untreated control plants; an efficacy of 100 means that the treated plants were not infected.
(§5) The expected efficacies of the active compound mixtures are determined using Colby's formula [S. R. Colby, Weeds 15, 20-22 (1967)] and compared with the observed efficacies.
(§6) Colby's formula: E=x+y−x·y/100 • E expected efficacy, expressed in % of the untreated control, when using the mixture of the active compounds A and B at the concentrations a and b • x efficacy, expressed in % of the untreated control, when using active compound A at a concentration of a
(§7) y efficacy, expressed in % of the untreated control, when using active compound B at a concentration of b

[2] = tested on: Alternaria solani; assay: Activity against early blight of tomato caused by Alternaria solani; assay type: in vivo; conditions: individual active compound, 5 days after infection
Protocol: as §1, §2, §3, §4, §5, §6, §7
Leaves of potted plants of the cultivar “Groβe Fleischtomate St. Pierre” were sprayed to runoff point with an aqueous suspension having the concentration of active compounds stated below. The next day, the leaves were infected with an aqueous zoospore suspension of Alternaria solani in 2% biomalt solution having a density of 0.17×10^6 spores/ml. The plants were then placed in a water-vapor-saturated chamber at temperatures of between 20 and 22° C. After 5 days, the infection on the leaves of the untreated, but infected control plants had developed to such an extent that the infection could be determined visually in %.

[3] = concentration in the spray liquor 0.25, 5 days after inoculation
[4] = concentration in the spray liquor 1, 5 days after inoculation
[5] = concentration in the spray liquor 4, 5 days after inoculation

Compound | Efficacy in % of the untreated control [1, 3] | Efficacy in % of the untreated control [1, 4] | Efficacy in % of the untreated control [1, 5] | Efficacy in % of the untreated control ([1]; concentration in the spray liquor 16, 5 days after inoculation) | Efficacy in % of the untreated control ([2]; 0.25 ppm in the spray liquor) | Efficacy in % of the untreated control ([2]; 1 ppm in the spray liquor) | Efficacy in % of the untreated control ([2]; 4 ppm in the spray liquor)
N#Cc1sc2c(=O)c3ccccc3c(=O)c=2sc1C#N [I, dithianon] | 0% | 0% | 0% | 0% | 0% | 0% | 0%
CC1(C)CCC(Cc2ccc(Cl)cc2)C1(O)Cn1cncn1 (centres unmarked) [II-1, metconazole] | 0% | 49% | – | – | 2% | 63% | –
Fc1ccc(C2(Cn3cncn3)OC2c2ccccc2Cl)cc1 (centres unmarked) [II-2, epoxiconazole] | 9% | 9% | – | – | 63% | 75% | –
CC(C)(C)C(O)(CCc1ccc(Cl)cc1)Cn1cncn1 (centres unmarked) [II-4, tebuconazole] | 0% | 0% | 0% | – | 0% | 63% | –
